Data from ChEMBL document CHEMBL5360560, “Anti-Vibrio potential of natural products from marine microorganisms” (Eur J Med Chem, 2023).
≈ marks a conversion by molar mass, not a printed value.

What was measured:
Vibrio anguillarum [1] = test: Antibacterial activity against Vibrio anguillarum assessed as bacterial growth inhibition; type: functional
Vibrio harveyi [2] = test: Antibacterial activity against Vibrio harveyi assessed as bacterial growth inhibition; type: functional
Vibrio harveyi [3] = test: Antimicrobial activity against Vibrio harveyi assessed as bacterial growth inhibition by microplate reader assay; type: functional
Vibrio anguillarum [4] = test: Antimicrobial activity against Vibrio anguillarum QDIO-6 assessed as bacterial growth inhibition by microtiter plate assay; type: functional
Vibrio parahaemolyticus [5] = test: Antimicrobial activity against Vibrio parahaemolyticus assessed as bacterial growth inhibition; type: functional
Vibrio parahaemolyticus [6] = test: Antimicrobial activity against Vibrio parahaemolyticus assessed as zone of inhibition; type: functional
Vibrio vulnificus [7] = test: Antimicrobial activity against Vibrio vulnificus MCCC E1758 assessed as bacterial growth inhibition by resazurin dye based assay; type: functional
Vibrio alginolyticus [8] = test: Antimicrobial activity against Vibrio alginolyticus assessed as zone of inhibition; type: functional
Vibrio parahaemolyticus [9] = test: Antimicrobial activity against Vibrio parahaemolyticus ATCC 17802 assessed as bacterial growth inhibition by microplate reader assay; type: functional
Vibrio harveyi [10] = test: Antimicrobial activity against Vibrio harveyi QDIO-7 assessed as bacterial growth inhibition by microplate reader assay; type: functional
Vibrio harveyi [11] = test: Antimicrobial activity against Vibrio harveyi BB120 assessed as bacterial growth inhibition by bioluminescence based Quorum-Sensing assay; type: functional, organism-based
Vibrio parahaemolyticus [12] = test: Antimicrobial activity against Vibrio parahaemolyticus assessed as bacterial growth inhibition by broth dilution assay; type: functional
Vibrio anguillarum [13] = test: Antimicrobial activity against Vibrio anguillarum assessed as bacterial growth inhibition by broth dilution assay; type: functional
Vibrio alginolyticus [14] = test: Antimicrobial activity against Vibrio alginolyticus assessed as bacterial growth inhibition by broth dilution assay; type: functional
Vibrio anguillarum [15] = test: Antimicrobial activity against Vibrio anguillarum assessed as bacterial growth inhibition by microplate reader assay; type: functional
Vibrio harveyi [16] = test: Antimicrobial activity against Vibrio harveyi assessed as bacterial growth inhibition; type: functional
Vibrio vulnificus [17] = test: Antimicrobial activity against Vibrio vulnificus assessed as bacterial growth inhibition; type: functional
Vibrio anguillarum [18] = test: Antimicrobial activity against Vibrio anguillarum assessed as zone of inhibition per disc at 100 ug measured after 24 hrs by disc diffusion assay; type: functional; details: read-out: IZ
Vibrio anguillarum [19] = test: Antimicrobial activity against Vibrio anguillarum assessed as bacterial growth inhibition; type: functional

`C=C(C)C1(O)OC(=O)C=C1OC` (configuration not stated) [PENICILLIC ACID] was tested. Which MIC (Vibrio anguillarum [1]) did it give?
The MIC was 0.5 µg/mL.

And the MIC (Vibrio harveyi [2])?
The MIC was 32 µg/mL (≈ 188 µM).

How did the MIC (Vibrio harveyi [3]) turn out when `COC(=O)CC[C@H]1C(=O)N/C(=C\C(C)C)c2nc3ccccc3c(=O)n21` was run?
Its MIC is 8 µg/mL.

Which MIC (Vibrio anguillarum [4]) does the source give for `COC(=O)[C@H](O)CS[C@@H]1CCCCCCC[C@@H](C)OC(=O)C1` here?
Its MIC is 2 µg/mL.

`CC[C@@H](C)[C@@H](O)/C=C/C(C)=C/CC[C@@H](C)C[C@H](C)[C@H]1C[C@@H](O)[C@H](C)CC/C=C/[C@H](C)C/C=C(\C)[C@H](O)CCC[C@@H](O)[C@H](C)/C=C/C(=O)O1` was tested. Which MIC (Vibrio parahaemolyticus [5]) did it give?
Its MIC is 1.56 µg/mL.

How did the “inhibition zone (IZ)” value (Vibrio parahaemolyticus [6]) turn out when `C[C@H]1[C@H]([C@@]2(C)CCC([C@](C)(O)CO)O2)CC[C@@]1(C)O` (some centres not stated) was run?
Its value is 6.2 mm.

For `CCOC(=O)Cc1cc(O)cc(O)c1C(=O)CC`, which MIC (Vibrio vulnificus [7]) is on record?
The MIC was 15.6 µg/mL (≈ 61.8 µM).

Which results are given for `CC(C)C[C@H]1NC(=O)[C@H]2C[C@H](O)CN2C1=O`?
inhibition zone (IZ) (Vibrio alginolyticus [8]): 22 mm; inhibition zone (IZ) (Vibrio parahaemolyticus [6]): 14 mm

`O=C1c2cc(O)cc(O)c2C(=O)c2c1cc(O)c(C(CO)CCO)c2O` (configuration not stated) was tested. Which MIC (Vibrio parahaemolyticus [9]) did it give?
Its MIC is 12 µg/mL.

Which MIC (Vibrio harveyi [10]) does the source give for `O=C1CC[C@@H](c2ccc(O)c3c2C(=O)CCC3=O)c2cccc(O)c21` here?
Its MIC is 4 µg/mL.

How did the IC50 (Vibrio harveyi [11]) turn out when `CCOC(=O)C[C@H](O)COC(=O)/C=C/CCl` was run?
Its IC50 is 17.6 µM.

How did the MIC (Vibrio parahaemolyticus [5]) turn out when `CC[C@H]1/C=C/CC[C@@H](C)[C@H](O)C[C@H]([C@@H](CO)C[C@H](C)CC[C@H](O)[C@H](C)/C=C/[C@H](O)C(C)C)OC(=O)/C=C/[C@](C)(O)[C@H](O)CCC[C@@H](O)[C@H](C)CC1` was run?
Its MIC is 1.56 µg/mL.

Which MIC (Vibrio harveyi [10]) does the source give for `CC(C)/C=C1\NC(=O)[C@@H](Cc2ccccc2)n2c1nc1ccccc1c2=O` here?
Its MIC is 64 µg/mL.

Which results are given for `COc1cc(O)c2c(c1)C(=O)C1=C(C[C@@H](O)[C@@](C)(O)C1)C2=O` [ALTERSOLANOL B]?
MIC (Vibrio parahaemolyticus [5]): 25 µM; MIC (Vibrio parahaemolyticus [12]): 2.5 µg/mL; MIC (Vibrio anguillarum [13]): 5 µg/mL

What does the source list for `CC(C)CCC[C@@](C)(O)c1ccc(C(=O)O)cc1O`?
MIC (Vibrio parahaemolyticus [5]): 5 µM; MIC (Vibrio anguillarum [1]): 10 µM

What does the source list for `C/C(=C\[C@H]1OC(=O)[C@@H](C)[C@@H]1C)[C@H]1CCC2=C3C=CC4=CC(=O)CC[C@]4(C)[C@H]3CC[C@@]21C`?
MIC (Vibrio parahaemolyticus [12]): 25 µg/mL; MIC (Vibrio anguillarum [13]): 25 µg/mL; MIC (Vibrio alginolyticus [14]): 25 µg/mL

With `COc1cc(O)c2c(c1)C(=O)[C@@H]1C[C@](C)(O)[C@H](O)[C@H](O)[C@]1(O)C2=O` as the molecule, how does the MIC (Vibrio parahaemolyticus [5]) read?
The MIC was 50 µM.

Which MIC (Vibrio harveyi [3]) does the source give for `C[C@H]1C[C@H](O)[C@H]2[C@@H](C=C[C@@](C)(O)[C@]2(C)C(=O)CCO)C1` here?
The MIC was 4 µg/mL.

And the MIC (Vibrio anguillarum [15])?
Its MIC is 4 µg/mL.

Which results are given for `C[C@H](O)/C=C1/C(=O)O[C@H]([C@@H](C)O)[C@@H]1O`?
MIC (Vibrio anguillarum [1]): 0.5 µg/mL; MIC (Vibrio harveyi [2]): 32 µg/mL (≈ 158 µM)

How did the IC50 (Vibrio harveyi [11]) turn out when `O=C(/C=C/CCl)O[C@@H]1COC(=O)C1` was run?
The IC50 was 5.6 µM.

`CC(C)/C=C1\NC(=O)[C@H](CCC(N)=O)n2c1nc1ccccc1c2=O` [AURANTIOMIDE C] was tested. Which MIC (Vibrio harveyi [3]) did it give?
Its MIC is 8 µg/mL.

Which MIC (Vibrio parahaemolyticus [5]) does the source give for `CC[C@@H](C)[C@H](/C=C/C(=C/CC[C@@H](C)C[C@H](C)[C@H]1C[C@@H](O)[C@H](C)CC/C=C/[C@H](C)C/C=C(\C)[C@H](O)CCC[C@@H](O)[C@H](C)/C=C/C(=O)O1)CO)OC(C)=O` here?
The MIC was 1.56 µg/mL.

How did the MIC (Vibrio parahaemolyticus [12]) turn out when `CO[C@@H]1CC(=O)/C=C/C[C@@H](C)OC(=O)C[C@H](O)C1` was run?
The MIC was 25 µM.

With `CC(C)/C=C1/NC(=O)[C@H](CCC(N)=O)n2c1nc1ccccc1c2=O` as the molecule, how does the MIC (Vibrio harveyi [3]) read?
Its MIC is 8 µg/mL.

Which MIC (Vibrio anguillarum [1]) does the source give for `C[C@H](O)[C@H](Cl)C1=C[C@H](O)[C@@H](C)OC1=O` [CHLOROHYDROASPYRONE A] here?
Its MIC is 0.5 µg/mL.

What about the MIC (Vibrio harveyi [2]) of the same molecule?
The MIC was 32 µg/mL (≈ 145 µM).

For `Nc1ccccc1C(=O)C[C@H]1NC(=O)[C@H]2CCCN2C1=O`, which MIC (Vibrio harveyi [16]) is on record?
The MIC was 50 µM.

Which MIC (Vibrio vulnificus [17]) does the source give for `COc1cc(O)c2c(=O)c(C)c(C)oc2c1OC` here?
Its MIC is 64 µg/mL (≈ 256 µM).

Which MIC (Vibrio parahaemolyticus [12]) does the source give for `COc1ccc(O)c(-c2cc(OC)ccc2O)c1` here?
Its MIC is 10 µg/mL.

Which results are given for `CC(C)(O)[C@H](O)CC[C@]1(C)[C@@H](O)CC[C@@]2(C)[C@H]1CC[C@H]1Cc3c([nH]c4ccccc34)[C@@]12C`?
MIC (Vibrio parahaemolyticus [12]): 6.3 µM; MIC (Vibrio anguillarum [13]): 3.1 µM; MIC (Vibrio alginolyticus [14]): 3.1 µM

Which zone of inhibition at 100 µg/disc (Vibrio anguillarum [18]) does the source give for `O=C1N[C@](O)(Cc2ccccc2)C(=O)N2CCC[C@H]12` here?
Its zone of inhibition at 100 µg/disc is 20 mm.

With `C/C=C/CC/C=C/c1c(O)cc(CC=C(C)C)c(O)c1C=O` as the molecule, how does the MIC (Vibrio anguillarum [19]) read?
The MIC was 65 µM (≈ 19.5 µg/mL).

And the MIC (Vibrio harveyi [16])?
The MIC was 65 µg/mL.

For `C[C@@H](O)CCCCC[C@H](C)[C@@H]1C=CC(=O)O1`, which MIC (Vibrio parahaemolyticus [12]) is on record?
The MIC was 25 µM.

How did the MIC (Vibrio anguillarum [19]) turn out when `CC(C)=CCc1ccc(O)c(C=O)c1` was run?
The MIC was 65 µM (≈ 12.4 µg/mL).

What about the MIC (Vibrio harveyi [16]) of the same molecule?
Its MIC is 65 µg/mL.

`COc1cc(O)c2c(c1)C(=O)C1=C(C2=O)[C@H](O)[C@@H](O)[C@@](C)(O)C1` was tested. Which MIC (Vibrio parahaemolyticus [5]) did it give?
The MIC was 25 µM.

What does the source list for `C=C(C)[C@@H]1COc2c(C)cc3oc4c(C[C@H](OC(C)=O)C(C)(C)O)ccc(O)c4c(=O)c3c2[C@@H]1O`?
MIC (Vibrio parahaemolyticus [12]): 1.56 µM; MIC (Vibrio anguillarum [13]): 1.56 µM; MIC (Vibrio alginolyticus [14]): 1.56 µM

Which zone of inhibition at 100 µg/disc (Vibrio anguillarum [18]) does the source give for `O=C1N[C@H](Cc2ccccc2)C(=O)N2CCC[C@@H]12` here?
Its zone of inhibition at 100 µg/disc is 24 mm.

Which MIC (Vibrio harveyi [16]) does the source give for `O=C1NCc2nc3ccccc3c(=O)n2C1Cc1c[nH]c2ccccc12` (configuration not stated) here?
Its MIC is 16 µg/mL.
